Test results as given in PMC10791743, “Selective CK1α degraders exert antiproliferative activity against a broad range of human cancer cell lines” (Nature Communications, 2024).
Several values for one entry are separate records, joined by “and”; a condition that tells them apart may be missing. Equal values may be shown once.

What was measured:
[1] = Metabolic stability in cryopreserved hepatocytes, human; assay type: in vitro ADME; settings: human, cryopreserved hepatocytes; read-out: Hepatocyte stability t1/2
Protocol: page 34: UHPLC-MS/MS System: Chromatographic separation was performed on an Acquity UPLC BEH […] with 6500+ Qtrap system. […] software suite. The UPLC column was maintained at 55 °C. Mobile phase A was 0.1% formic acid in MilliQ H2O and Mobile phase B was 0.1% formic acid in acetonitrile. The flow rate was 0.9 […] The mass spectrometer was operated in positive-ion mode with electrospray ionization. MRM transition m/z […] plasma stability and plasma protein binding. The following MS parameters were employed for analyte measurements: ion spray voltage 5 kV, temperature 550 °C, gas 1 and gas 2 were 60, entrance potential (EP): 10 V, declustering potential (DP): 50 V, collision energy (CE): 27 V, and collision cell exit potential (CXP): 16 V. Metabolic Stability in mouse and human cryopreserved hepatocytes. 10 mM test compounds were provided by Compound Sample Group. Diluted 10 mM test compounds and 30 mM positive control compounds (7-ethoxycoumarin) to 1 mM and 3 mM with DMSO in 96-well plates. Diluted 1 mM test compounds and 3 mM positive control compounds to 100 μM and 300 μM dosing solutions with ACN. Cryopreserved cells were thawed, isolated and suspended in Incubation Medium, then diluted with pre-warmed Incubation Medium to 0.5 × 10^6cells/mL. Added 198 μL of pre-warmed cell suspensions in 96 -well plates. Transferred 125 μL of stop solution (acetonitrile containing 200 ng/mL tolbutamide and 200 ng/mL labetalol as internal standards) in a set of pre- labeled 96-well plates. Spike d 2 μL dosing solution to each well of 96 -well plates in duplicates. For T0 Samples, mix ed to achieve a homogenous suspension for about 1 min, then immediately transferred 25 μL of each sample into well containing 125 μL of ice -cold stop solution followed by mixing. Incubated all plates at 37°C in a 95% humidified incubator at 5% CO 2 to start the reactions page 35: with constant shaking at about 600 rpm. At 15, 30, 60 and 90 min, mixed samples and then transferred 25 μL of each sample at each time point to well containing 125 μL of ice -cold stop solution followed by mixing. Medium Control (MC) sample plates (labeled as T0-MC and T90- MC) were prepared at T0 and T90 by adding the same components to each well except cell suspensions. At each corresponding time point, stopped the reactions by removing the plates from incubator and mixing with 125 μL of ice-cold stop solution. Vortexed the plates immediately on a plate shaker at 500 rpm for 10 minutes. Then, centrifuge d all sample plates at 3220 x g for 20 min at 4°C. After centrifugation, 80 μL/well of supernatant in the sample plates were transferred to another set of pre-labeled 96-well plates which containing 240 μL of ultra pure water according to the plate map. Analytical plates were sealed and stored at 4°C until LC-MS/MS analysis. Thawing Medium: Williams' Medium E containing 5% fetal bovine serum and 30% Perc oll solution and other supplements. Incubation Medium: Williams' Medium E (no phenol red) containing 2 mM L-Glutamine and 25 mM HEPES. Stop Solution: Acetonitrile containing 200 ng/mL tolbutamide and labetalol as internal standards. Dilution Solution: Ultra-pure water. The remaining percents of test articles after incubation were calculated by the follow equations: Equation ( 6): Use equation of first order kinetics [NT] […] The data was […] concatenated with a reversed decoy database for evaluating False Discovery Rate (FDR). […]

CK1α = CK1α (Homo sapiens, UniProt P48729+Q96SW2); assay: In vivo PD: CK1α protein levels in MOLM-13 xenograft (western blot of human cells from bone marrow); set-up: quantified western blots of isolated human cells from the bone marrow of treated mice; endogenous in cells; host or cells: MOLM-13 xenograft cells from NSG mouse bone marrow, murine cells depleted; species or system NSG mice engrafted with MOLM-13 cells; settings: for CK1a quantified western blot signal, group mean (Mean 2): n 3, DMSO mean 0.9882; for CK1a quantified western blot signal, individual animals: relative to DMSO; for CK1α protein level in vivo: 48 h
Chain of CK1α (P48729 whole entry): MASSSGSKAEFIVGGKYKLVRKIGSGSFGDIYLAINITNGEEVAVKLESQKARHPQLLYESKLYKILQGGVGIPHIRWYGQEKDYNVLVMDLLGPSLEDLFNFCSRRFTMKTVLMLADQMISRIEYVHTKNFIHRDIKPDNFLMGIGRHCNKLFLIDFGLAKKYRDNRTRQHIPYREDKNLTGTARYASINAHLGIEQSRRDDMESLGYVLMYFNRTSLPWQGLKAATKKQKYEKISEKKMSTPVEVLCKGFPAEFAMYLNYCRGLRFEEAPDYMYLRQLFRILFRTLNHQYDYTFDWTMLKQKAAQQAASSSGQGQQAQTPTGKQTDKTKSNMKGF
Chain of CK1α (Q96SW2 whole entry): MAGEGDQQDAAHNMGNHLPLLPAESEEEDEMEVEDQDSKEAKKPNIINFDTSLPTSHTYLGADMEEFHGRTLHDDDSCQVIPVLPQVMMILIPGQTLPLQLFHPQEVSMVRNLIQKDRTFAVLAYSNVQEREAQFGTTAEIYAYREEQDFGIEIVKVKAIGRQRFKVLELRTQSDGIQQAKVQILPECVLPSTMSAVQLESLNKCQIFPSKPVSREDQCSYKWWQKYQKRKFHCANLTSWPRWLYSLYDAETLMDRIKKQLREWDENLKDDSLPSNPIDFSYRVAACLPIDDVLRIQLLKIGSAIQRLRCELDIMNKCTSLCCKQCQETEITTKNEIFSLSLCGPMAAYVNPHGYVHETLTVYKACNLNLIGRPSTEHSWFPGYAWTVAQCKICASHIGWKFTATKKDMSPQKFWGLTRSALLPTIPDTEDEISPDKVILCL
Chain of CK1α (Q16531 whole entry partner): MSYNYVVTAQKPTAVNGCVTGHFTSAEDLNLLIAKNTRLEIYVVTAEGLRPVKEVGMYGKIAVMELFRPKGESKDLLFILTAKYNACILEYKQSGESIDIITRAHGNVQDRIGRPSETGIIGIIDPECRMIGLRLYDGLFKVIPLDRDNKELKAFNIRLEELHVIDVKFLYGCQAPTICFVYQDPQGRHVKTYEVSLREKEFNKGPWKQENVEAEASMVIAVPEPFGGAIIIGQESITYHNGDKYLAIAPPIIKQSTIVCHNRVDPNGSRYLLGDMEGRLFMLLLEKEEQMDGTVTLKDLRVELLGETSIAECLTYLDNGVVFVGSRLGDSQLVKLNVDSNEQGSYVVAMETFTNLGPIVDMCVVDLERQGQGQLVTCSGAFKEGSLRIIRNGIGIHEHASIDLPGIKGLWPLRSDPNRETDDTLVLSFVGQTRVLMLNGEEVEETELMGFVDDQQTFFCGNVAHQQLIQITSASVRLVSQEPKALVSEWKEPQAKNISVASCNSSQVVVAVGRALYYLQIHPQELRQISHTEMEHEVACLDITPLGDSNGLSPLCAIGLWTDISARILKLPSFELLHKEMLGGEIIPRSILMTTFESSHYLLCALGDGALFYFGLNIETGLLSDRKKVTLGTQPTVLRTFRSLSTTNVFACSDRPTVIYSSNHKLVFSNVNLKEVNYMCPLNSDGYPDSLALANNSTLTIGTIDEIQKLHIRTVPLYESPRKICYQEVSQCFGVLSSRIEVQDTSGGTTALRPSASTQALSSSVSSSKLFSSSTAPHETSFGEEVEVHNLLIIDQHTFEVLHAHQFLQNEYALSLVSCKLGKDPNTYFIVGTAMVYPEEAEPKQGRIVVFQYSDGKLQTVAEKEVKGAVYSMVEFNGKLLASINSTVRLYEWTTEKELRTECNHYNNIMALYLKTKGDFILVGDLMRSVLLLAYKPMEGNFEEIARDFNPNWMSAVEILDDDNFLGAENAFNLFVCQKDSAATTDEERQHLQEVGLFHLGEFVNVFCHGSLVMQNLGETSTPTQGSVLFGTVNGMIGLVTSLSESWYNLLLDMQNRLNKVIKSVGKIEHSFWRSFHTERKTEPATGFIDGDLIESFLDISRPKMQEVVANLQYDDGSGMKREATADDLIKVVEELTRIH
Protocol: For the PD experiment, NSG mice engrafted with MOLM-13 cells were treated for 48 h with SJ3149 or DMSO vehicle in 4 groups: vehicle, 50 mg/kg once per day, or vehicle or 50 mg/kg twice per day (Fig. 6). After 48 h, the mice were sacrificed and human cells were isolated from the collected bone marrow and lysed for western blot analysis.
(§1) For the xenograft transplantation study, female NSG mice (NOD.Cg-Prkdc^scid Il2rg^tm1Wjl/SzJ, Strain #005557, The Jackson Laboratory) aged 6–8 weeks were transplanted with 100,000 MOLM-13 cells by tail-vein injection. 10 days post-transplantation, mice were treated with SJ3149 via intraperitoneal injections for the following 2-day dosing schedule: 50 mg/kg (1 dose every 12 h), and 50 mg/kg (1 dose every 24 h) with n = 3 per group. Control groups (n = 3) were treated with DMSO either 1 dose every 24 h or 1 dose every 12 h with equal volume as treatment groups. Mice were euthanized 48 h after the first treatment and bone marrow cells were collected. Murine cells were depleted using the EasySep Mouse/Human Chimera isolation kit ([…] Technologies #19849). NSG mice were housed in microisolation cages and kept under barrier conditions to keep them specific pathogen-free. The lights for NSG mice are on an automated 12-h on, 12-h off light cycle. The mouse room has a separate thermostat and humidistat to control temperature and humidity at the room level. Sex was not considered beyond female mice being most commonly used for cell line-derived xenografts. Ethical approval by the St. Jude Institutional Animal Care and Use Committee.
as §1, with “Female” for “For the xenograft transplantation study, female”

O=C1CCC(N2Cc3cc(Nc4noc5ccccc45)ccc3C2=O)C(=O)N1 (stereo not drawn) [SJ3149]
half-life at 1 µM [1]: > 3.6 h
CK1a quantified western blot signal, group mean (Mean 2) (CK1α; 50 mg/kg 1x/day): 0.3507
CK1a quantified western blot signal, individual animals (CK1α; 50 mg/kg 1x/day): 0.2018 and 0.4461 and 0.4041
CK1a quantified western blot signal, group mean (Mean 2) (CK1α; 50 mg/kg 2x/day): 0.212
CK1a quantified western blot signal, individual animals (CK1α; 50 mg/kg 2x/day): 0.07248 and 0.5016 and 0.06191
CK1a quantified western blot signal, group mean (Mean 2) (CK1α; 100 mg/kg 1x/day): 0.4998
CK1a quantified western blot signal, individual animals (CK1α; 100 mg/kg 1x/day): 0.1574 and 0.8298 and 0.5123
CK1α protein level in vivo (CK1α; IP 50 mg/kg once per day): significant degradation of CK1α
CK1α protein level in vivo (CK1α; IP 50 mg/kg twice per day): significant degradation of CK1α
